# In US20070191336A1 (priority 2003, published 2007):
# Target: T1, phospho p-38 alpha kinase (Homo sapiens, UniProt Q16539)
# T1 construct: purchased Panvera
# Assay: P-38 alpha kinase assay (spectrophotometric, pyruvate kinase/lactate dehydrogenase coupled)
# Type: biochemical
# Details: Table 2; rates from […] to 2 h time frame
# T1 sequence (Q16539 whole entry): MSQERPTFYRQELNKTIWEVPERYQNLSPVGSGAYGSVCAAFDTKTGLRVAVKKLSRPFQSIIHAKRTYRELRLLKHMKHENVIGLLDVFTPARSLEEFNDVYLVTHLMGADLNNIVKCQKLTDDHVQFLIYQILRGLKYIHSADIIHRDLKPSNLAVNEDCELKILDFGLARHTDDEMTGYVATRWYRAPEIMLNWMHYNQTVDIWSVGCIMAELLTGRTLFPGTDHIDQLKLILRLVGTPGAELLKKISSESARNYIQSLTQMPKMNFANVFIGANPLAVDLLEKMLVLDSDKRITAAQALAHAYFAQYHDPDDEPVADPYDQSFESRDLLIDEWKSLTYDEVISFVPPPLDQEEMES
row,IC50,Structure (SMILES)
1,0.437 µM,CC(C)(C)c1cc(NC(=O)Nc2ccc(Cl)cc2)n(-c2cccc(CO)c2)n1 [Example F]

# Same assay, conditions: Table 3; at 10 uM
row,Structure (SMILES),% Inhibition @ concentration
1,"CC(C)c1cc(NC(=O)Nc2ccc(Cl)cc2)n(-c2cccc(CCC(=O)O)c2)n1 [Example 533, 3-(3-(5-(3-(4-chlorophenyl)ureido)-3-isopropyl-1H-pyrazol-1-yl)phenyl)propanoic acid]",39% @ 10

# Same assay, conditions: Table 3; rates from […] to 2 h time frame
row,Structure (SMILES),IC50
1,"Cn1[nH]c(=O)n(Cc2cccc(-n3nc(C(C)(C)C)cc3NC(=O)Nc3cccc(Cl)c3Cl)c2)c1=O [Example 511, 1-{5-t-butyl-2-[3-(1-methyl-3,5-dioxo-[1,2,4]triazolidin-4-ylmethyl)-phenyl]-2H-pyrazol-3-yl}-3-(2,3-dichloro-phenyl)-urea]",0.024 µM
2,"CC(C)(C)c1cc(NC(=O)Nc2cccc(Cl)c2)n(-c2cccc(CCN)c2)n1 [Example 378, 1-{1-[3-(2-aminoethyl)phenyl]-3-t-butyl-1H-pyrazol-5-yl}-3-(3-chlorophenyl)urea]",0.4 µM
3,"CC(C)(C)c1cc(NC(=O)Nc2cccc(F)c2F)n(-c2cccc(C#N)c2)n1 [Example 355, 1-[3-t-butyl-1-(3-cyan-phenyl)-1H-pyrazol-5-yl]-3-(2,3-difluorophenyl)urea]",0.042 µM
4,CC(C)(O)c1cccc(-n2nc(C(F)(F)F)cc2NC(=O)Nc2cccc3ccccc23)c1 [Example 440],0.92 µM
5,"CC(C)(C)c1cc(NC(=O)Nc2ccc(Cl)cc2)n(-c2cccc(CNC(=O)N3CCOCC3)c2)n1 [Example 489, 1-(3-t-butyl-1-{3-[(morpholine-4-carboxamido)methyl]phenyl}-1H-pyrazol-5-yl)-3-(4-chlorophenyl)urea]",0.52 µM
6,"CC(C)(C)c1cc(NC(=O)Nc2cccc(Cl)c2Cl)n(-c2cccc(CCN)c2)n1 [Example 374, 1-{1-[3-(2-aminoethyl)phenyl]-3-t-butyl-1H-pyrazol-5-yl}-3-(2,3-dichlorophenyl)urea]",0.037 µM
7,"Cc1cc(NC(=O)Nc2cccc3ccccc23)n(-c2cccc(C(C)(C)O)c2)n1 [Example 444, 1-{1-[3-(2-hydroxypropan-2-yl)phenyl]-3-methyl-1H-pyrazol-5-yl}-3-(naphthalen-1-yl)urea]",5 µM
8,"O=C(Nc1ccc(Cl)cc1)Nc1cc(-c2ccccc2)nn1-c1ccc(CO)cc1 [Example 434, 1-(4-chlorophenyl)-3-{1-[4-(hydroxymethyl)phenyl]-3-phenyl-1H-pyrazol-5-yl}-urea]",1.9 µM
9,"CC(Cc1ccc(-n2nc(C(C)(C)C)cc2NC(=O)Nc2cccc3ccccc23)cc1)C(=O)O (stereo not drawn) [Example 428, 3-(4-{3-t-butyl-5-[3-(naphthalen-1-yl)ureido]-1H-pyrazol-1-yl}phenyl)-2-methylpropanoic acid]",0.14 µM
10,"CC(O)c1ccc(-n2nc(C(C)(C)C)cc2NC(=O)Nc2cccc3ccccc23)cc1 (stereo not drawn) [Example 463, 1-{3-t-butyl-1-[4-(1-hydroxyethyl)phenyl]-1H-pyrazol-5-yl}-3-(naphthalen-1-yl)urea]",0.056 µM
11,"CC(C)(C)c1cc(NC(=O)Nc2cccc3ccccc23)n(-c2cccc(CN3C(=O)CCC3=O)c2)n1 [Example 308, 1-(3-t-butyl-1-{3-[(2,5-dioxopyrrolidin-1-yl)methyl]phenyl}-1H-pyrazol-5-yl)-3-(naphthalen-1-yl)urea]",0.12 µM

# Other lines, results leading:
row,IC50,Structure (SMILES)
1,1.3 µM,"CC(C)c1cc(NC(=O)Nc2ccc(Cl)cc2)n(-c2ccc(CO)cc2)n1 [Example 438, 1-(4-chlorophenyl)-3-{1-[4-(hydroxymethyl)phenyl]-3-isopropyl-1H-pyrazol-5-yl}-urea]"
2,4.45 µM,"CC(C)(C)c1cc(NC(=O)Nc2cccc(C(F)(F)F)c2)n(-c2cccc(CN)c2)n1 [Example 387, 1-{1-[3-(aminomethyl)phenyl]-3-t-butyl-1H-pyrazol-5-yl}-3-(3-(trifluoro-methyl)phenyl)urea]"
3,0.0103 µM,"CC(C)(C)c1cc(NC(=O)Nc2cccc(Br)c2)n(-c2cccc(CO)c2)n1 [Example 407, 1-{3-t-butyl-1-[3-(hydroxymethyl)phenyl]-1H-pyrazol-5-yl}-3-(3-bromophenyl)urea]"
4,1.07 µM,"CCOC(=O)C(C)Cc1ccc(-n2nc(C(C)(C)C)cc2NC(=O)Nc2ccc(Cl)cc2)cc1 (stereo not drawn) [Example 429, ethyl 3-(4-{3-t-butyl-5-[3-(4-chlorophenyl)ureido]-1H-pyrazol-1-yl}phenyl)-2-methylpropanoate]"
5,0.87 µM,CC(C)(C)c1cc(NC(=O)Nc2cccc(C(F)(F)F)c2)n(-c2cccc(C#N)c2)n1 [Example 361]
6,0.059 µM,"CC(C)(C)c1cc(NC(=O)Nc2cccc(Br)c2)n(-c2cccc(C#N)c2)n1 [Example 356, 1-(3-t-butyl-1-(3-cyanophenyl)-1H-pyrazol-5-yl)-3-(3-bromophenyl)urea]"
7,0.0086 µM,"CC(C)(C)c1cc(NC(=O)Nc2cccc(Cl)c2Cl)n(-c2ccc(C(=O)O)cc2)n1 [Example 468, 4-{3-t-butyl-5-[3-(2,3-dichlorophenyl)ureido]-1H-pyrazol-1-yl}benzoic acid]"
8,0.007 µM,"CC(C)(C)c1cc(NC(=O)Nc2cccc(Cl)c2Cl)n(-c2cccc(CCC(=O)O)c2)n1 [Example 365, 3-(3-{3-t-Butyl-5-[3-(2,3-dichloro-phenyl)ureido]-1H-pyrazol-1-yl}-phenyl)propionic acid]"
9,0.1 µM,"O=C(Nc1cccc(Cl)c1)Nc1cc(-c2ccccc2)nn1-c1cccc(CO)c1 [Example 455, 1-{3-phenyl-1-[3-(hydroxymethyl)phenyl]-1H-pyrazol-5-yl}-3-(3-chlorophenyl)urea]"
10,0.39 µM,COc1cccc(NC(=O)Nc2cc(C(C)(C)C)nn2-c2cccc(C#N)c2)c1 [Example 360]
11,0.45 µM,"CC(C)(C)c1cc(NC(=O)Nc2ccc(Cl)cc2)n(-c2cccc(C(O)C(F)(F)F)c2)n1 (stereo not drawn) [Example 516, 1-(3-t-butyl-1-(3-(2,2,2-trifluoro-1-hydroxyethyl)phenyl)-1H-pyrazol-5-yl)-3-(4-chlorophenyl)urea]"
12,0.043 µM,"CC(C)(C)c1cc(NC(=O)Nc2ccccc2F)n(-c2cccc(CC(N)=O)c2)n1 [Example 352, 1-{1-[3-(2-amino-2-oxoethyl)phenyl]-3-t-butyl-1H-pyrazol-5-yl}-3-(2-fluorophenyl)urea]"
13,0.05 µM,"CC(O)c1cccc(-n2nc(C(C)(C)C)cc2NC(=O)Nc2cccc3ccccc23)c1 (stereo not drawn) [Example 472, 1-{3-t-butyl-1-[3-(1-hydroxyethyl)phenyl]-1H-pyrazol-5-yl}-3-(naphthalen-1yl)urea]"

# Same assay, conditions: read-out: % Inhibition @ concentration, Table 3; at 0.1 uM
row,Structure (SMILES),inhibition at 0.1 µM
1,"CC(C)(C)c1cc(NC(=O)Nc2cccc(Cl)c2Cl)n(-c2cccc(C(N)=O)c2)n1 [Example 392, 1-[3-t-butyl-1-(3-carbamoylphenyl)-1H-pyrazol-5-yl]-3-(2,3-dichlorophenyl)urea]",75%
2,"CCOC(=O)c1cccc(-n2nc(C(C)(C)C)cc2NC(=O)Nc2ccc3c(c2)OCO3)c1 [Example 396, ethyl 3-{5-[3-(benzo[d][1,3]dioxo-5-yl)ureido]-3-t-butyl-1H-pyrazol-1-yl}benzoate]",3%
3,"CCOC(=O)CCc1cccc(-n2nc(C(C)C)cc2NC(=O)Nc2ccc(Cl)cc2)c1 [Example 416, ethyl 3-(3-(5-(3-(4-chlorophenyl)ureido)-3-isopropyl-1H-pyrazol-1-yl)phenyl)propanoate]",67%

# Same assay, conditions: read-out: % Inhibition @ concentration, Table 3; at 1 uM
row,Structure (SMILES),inhibition at 1 µM
1,"CC(C)(C)c1cc(NC(=O)Nc2cccc(Cl)c2Cl)n(-c2cccc(C(N)=O)c2)n1 [Example 392, 1-[3-t-butyl-1-(3-carbamoylphenyl)-1H-pyrazol-5-yl]-3-(2,3-dichlorophenyl)urea]",86%
2,"COc1cccc(-n2nc(C(C)(C)C)cc2NC(=O)Nc2ccc(N(C)C)cc2)c1 [Example 323, 1-(3-t-butyl-1-(3-methoxyphenyl)-1H-pyrazol-5-yl)-3-(4-(dimethylamino)phenyl)urea]",9%
3,"CCOC(=O)c1cccc(-n2nc(C(C)(C)C)cc2NC(=O)Nc2ccc3c(c2)OCO3)c1 [Example 396, ethyl 3-{5-[3-(benzo[d][1,3]dioxo-5-yl)ureido]-3-t-butyl-1H-pyrazol-1-yl}benzoate]",56%
4,"CCOC(=O)CCc1cccc(-n2nc(C(C)C)cc2NC(=O)Nc2ccc(Cl)cc2)c1 [Example 416, ethyl 3-(3-(5-(3-(4-chlorophenyl)ureido)-3-isopropyl-1H-pyrazol-1-yl)phenyl)propanoate]",83%
5,"CC(C)(C)c1cc(NC(=O)Nc2cccc(Br)c2)n(-c2cccc(CN)c2)n1 [Example 384, 1-{1-[3-(aminomethyl)phenyl]-3-t-butyl-1H-pyrazol-5-yl}-3-(3-bromophenyl)urea]",72%
6,"CN1CCN(C(=O)NCc2cccc(-n3nc(C(C)(C)C)cc3NC(=O)Nc3ccc(Cl)cc3)c2)CC1 [Example 493, 1-(3-t-butyl-1-{3-[(1-methylpiperazine-4-carboxamido)methyl]phenyl}-1H-pyrazol-5-yl)-3-(4-chlorophenyl)urea]",36%

# Same assay, conditions: read-out: % Inhibition @ concentration, Table 3; at 2 uM
row,Structure (SMILES),inhibition at 2 µM
1,"COc1cccc(NC(=O)Nc2cc(C)nn2-c2cccc(OC)c2)c1 [Example 339, 1-(3-methoxyphenyl)-3-(1-(3-methoxyphenyl)-3-methyl-1H-pyrazol-5-yl)urea]",9%

# Same assay, conditions: read-out: % Inhibition @ concentration, Table 3; at 10 uM
row,Structure (SMILES),inhibition at 10 µM
1,"CC(C)(C)c1cc(NC(=O)Nc2ccc(F)cc2)n(-c2cccc(CCC(=O)O)c2)n1 [Example 146, 3-(3-{3-t-butyl-5-[3-(4-fluoro-phenyl)-ureido]-pyrazol-1-yl}-phenyl)-propionic acid]",9%
2,COc1cccc(-n2nc(-c3ccccc3)cc2NC(=O)Nc2cccc(Cl)c2)c1 [Example 331],71%
3,"CCOC(=O)CCc1cccc(-n2nc(C(F)(F)F)cc2NC(=O)Nc2ccc(Cl)cc2)c1 [Example 529, 3-(3-{5-[3-(4-chloro-phenyl)-ureido]-3-trifluoromethyl-pyrazol-1-yl}-phenyl)-propionic acid ethyl ester]",40%
4,"COc1cccc(-n2nc(C(C)(C)C)cc2NC(=O)Nc2ccc(N(C)C)cc2)c1 [Example 323, 1-(3-t-butyl-1-(3-methoxyphenyl)-1H-pyrazol-5-yl)-3-(4-(dimethylamino)phenyl)urea]",51%
5,"CC(C)(C)c1cc(NC(=O)Nc2cccc(Br)c2)n(-c2cccc(CN)c2)n1 [Example 384, 1-{1-[3-(aminomethyl)phenyl]-3-t-butyl-1H-pyrazol-5-yl}-3-(3-bromophenyl)urea]",96%
6,"CN1CCN(C(=O)NCc2cccc(-n3nc(C(C)(C)C)cc3NC(=O)Nc3ccc(Cl)cc3)c2)CC1 [Example 493, 1-(3-t-butyl-1-{3-[(1-methylpiperazine-4-carboxamido)methyl]phenyl}-1H-pyrazol-5-yl)-3-(4-chlorophenyl)urea]",73%
7,"COc1cccc(-n2nc(C)cc2NC(=O)Nc2cccc(Cl)c2Cl)c1 [Example 340, 1-(2,3-dichlorophenyl)-3-(1-(3-methoxyphenyl)-3-methyl-1H-pyrazol-5-yl)urea]",31%
8,"COc1cccc(NC(=O)Nc2cc(C(C)(C)C)nn2-c2cccc(OC)c2)c1 [Example 326, 1-(3-t-butyl-1-(3-methoxyphenyl)-1H-pyrazol-5-yl)-3-(3-methoxyphenyl)urea]",41%

# Same assay, conditions: read-out: % inhibition @ concentration, Table 2; at 10 uM
row,Structure (SMILES),inhibition at 10 µM
1,"CC(C)(C)c1cc(NC(=O)Nc2cccc3ccccc23)n(-c2cccc(C(=O)N3C(=O)OC[C@@H]3c3ccccc3)c2)n1 [Example 18, L-1-{5-tert-butyl-2-[3-(2-oxo-4-phenyl-oxazolidinyl-3-carbonyl)phenyl]-2H-pyrazol-3-yl}-3-(naphthalen-1-yl)urea]",60%
